Assay results published in patent publication US11752111B2, “Use of cannabidivarin in the treatment of autism spectrum disorder, associated disorders and schizophrenia” (GW Research Limited, priority 2016, dated 2023).

System: Ube3am-/p+ (AS) mice
Test: Tail suspension test in Angelman syndrome model
Assay type: in vivo, mouse
Settings: CBDV 20 mg/kg i.p.; AS mice vs AS vehicle
Procedure: Heterozygous mice with maternal deficiency of Ube3A (Ube3am−/p+) and wild type (Ube3am+/p+) were purchased from The Jackson Laboratory (Jackson code: B6.129S7-Ube3a tm1Alb/J) and maintained in a C57BL/6 background.
Drugs were dissolved in 1:1:18 ethanol:cremophor:0.9% saline, for intraperitoneal (i.p.) administration. Drug treatment was performed daily for 35 days. CBDV was administered at 20 mg/kg.
Tail suspension: The tail suspension test assesses depressive-like behaviour in mice. Mice were individually suspended by the tail on a horizontal bar (50 cm from floor) using adhesive tape placed approximately 4 cm from the tip of the tail. The duration of immobility was recorded in seconds over a period of 6 minutes by a time recorder. Immobility time was defined as the absence of escape-oriented behaviour.

C=C(C)[C@@H]1CCC(C)=C[C@H]1c1c(O)cc(CCC)cc1O [CBDV, Cannabidivarin]
duration of immobility time, tail suspension (FIG. 14): significantly reduced the duration of immobility time
